Measurements published in patent US10695371B2, “Modification of extracorporeal photopherisis technology with porphyrin precursors” (Oslo Universitetssykehus HF, priority 2014, dated 2020).
Entries after “also recorded” stand apart in the source; their conditions may differ.

Columns and labels:
[1] = test system: human T-cell lymphoma cell line, Jurkat; assay: In vitro cell proliferation assay (MTS) after HAL and/or 8-MOP plus light; assay type: cell-based; settings: for Dark toxicity (MTS assay): no light
Experimental: The human T-cell lymphoma cell line, Jurkat (ATCC number: TIB-152TM), growing in suspensions at passages 4-24 was used in the study. […] For subcultivation, the cells were diluted to a density of 3×10^5 cells/ml every second day. […] The cells were collected from the cultivation flasks, centrifuged at 1400 rpm for 5 min and diluted in the serum-free RPMI 1640 medium to a density of 37.5×10^5 cells/ml. Eighty microliters of cell suspension were portioned into 96 well plates. […] For the UV-A irradiation of samples, a home-made UV-A lamp (Sorensen UV-A lamp, Phillips Th […]/09) emitting light mainly in the region 340-410 nm was used (FIG. 1). For the blue light illumination of samples, the light from a bank of four fluorescent tubes (model 3026, Applied Photophysics, London, United Kingdom) emitting light mainly in the region 410-500 nm with a maximum around 440 nm was used (FIG. 1). […] Twenty four hours after irradiation, 20 μl of MTS (Promega Corporation, Madison, Wis.) was added to each well. Absorbance at 492 nm was measured after one hour incubation at 37° C. by means of a well plate reader (Multiskan Ex, Labsystems, Finland).

[2] = test system: Jurkat cells; assay: In vitro long term cell survival assay in methylcellulose-based semisolid medium; design: species or system human
Experimental: The cells were collected from the cultivation flasks, centrifuged at 1400 rpm for 5 min and diluted in the serum-free RPMI 1640 medium to a density of 37.5×10^5 cells/ml. Eighty microliters of cell suspension were portioned into 96 well plates. […] For the UV-A irradiation of samples, a home-made UV-A lamp (Sorensen UV-A lamp, Phillips Th […]/09) emitting light mainly in the region 340-410 nm was used (FIG. 1). For the blue light illumination of samples, the light from a bank of four fluorescent tubes (model 3026, Applied Photophysics, London, United Kingdom) emitting light mainly in the region 410-500 nm with a maximum around 440 nm was used (FIG. 1). Methylcellulose-based medium human MethoCult® with recombinant cytokines, (H4034, StemCell Technologies, France) was used for survival assay. […] The samples were treated according to the manufacturer's instructions and suspensions were transferred into 35 mm Petri dishes. They were incubated at 37° C. in a humidified incubator with 5% CO2.

[3] = test system: Jurkat cells; assay: Assessment of apoptotic cells by fluorescence microscopy (Hoechst 33342 / PI); assay type: cell-based, human
Experimental: The cells were collected from the cultivation flasks, centrifuged at 1400 rpm for 5 min and diluted in the serum-free RPMI 1640 medium to a density of 37.5×10^5 cells/ml. Eighty microliters of cell suspension were portioned into 96 well plates. […] For the UV-A irradiation of samples, a home-made UV-A lamp (Sorensen UV-A lamp, Phillips Th […]/09) emitting light mainly in the region 340-410 nm was used (FIG. 1). For the blue light illumination of samples, the light from a bank of four fluorescent tubes (model 3026, Applied Photophysics, London, United Kingdom) emitting light mainly in the region 410-500 nm with a maximum around 440 nm was used (FIG. 1). Apoptotic cells were identified by fluorescence microscopy based on nuclear morphology after staining with 4.0 μg/mI Hoechst 33342 (Sigma, St. Louis, Mo.) at 37° C. for 10 min. This assay was verified in our previous experiments. […] For PI fluorescence detection, the filter combination consisted of a 540/25 nm excitation filter, a 565 nm beam splitter, and a 605/55 nm band-pass emission filter. Fluorescence images were captured by a highly light sensitive thermo-electrically cooled charge-coupled device camera […] (Hamamatsu, Japan).

[4] = test system: Jurkat human T-cell lymphoma cells; assay: ALA/UVA killing of Jurkat cells (PI staining); assay type: cell-based; settings: 1 mM ALA for 1 hour, 10% foetal bovine serum, then UVA light exposure
Experimental: Optimization of experimental conditions for ALA-ECP was performed in Jurkat cells, varying ALA concentration (1 to 5 mM) and treatment time (1 to 4 hours) in the presence of 10% foetal bovine serum. The cells were then exposed to UVA for 10 min using an UV-A lamp with almost identical emission spectra to those of the UV-A lamp used in the existing commercial Therakos photopheresis system. The cell survival after the ALA/UVA treatment was measured by fluorescence microscopy with propidium iodide (PI) staining.

[5] = test system: Proliferative (transformed or activated) T-cells; assay: ALA-induced PpIX production in proliferative versus resting T-cells; assay type: cell-based
[6] = test system: CD4+ T lymphocytes collected from a GvHD patient; assay: Ex vivo ALA-ECP killing of patient CD4+ T lymphocytes (flow cytometry); assay type: cell-based, human; settings: particularly at a low light dose, 5-min light illumination
Experimental: (§1) A suitable dose and incubation time of ALA was used in leukocyte samples collected from ECP patients. The dark toxicity of ALA at the concentration in question was evaluated, followed by the ALA/UVA-mediated killing efficiency before studies on the mechanism of its action (apoptosis/necrosis). The lymphocytes from patients were incubated with ALA under the optimized experimental conditions before exposure to the UVA lamp in the Therakos Photopheresis System at the same light dose as used in the ECP treatment. The cell survival of ALA dark toxicity, ALA/UVA-mediated killing efficiency and apoptosis/necrosis were measured with flow cytometry using combined labelling of CD4^+ or CD8^+ with Annexin V/PI staining.
(§2) The killing effects of 5-ALA (a porphyrin precursor) plus the UVA light irradiation on CD4^+/CD8^+ T lymphocytes collected from a Graft versus Host Disease (GvHD) patient who went to a standard photopheresis treatment was evaluated. The cells were exposed to ALA+UVA in the standard photopheresis machine, and percentage survival evaluated at various timepoints between 1 h and 20 h. The 8-MOP plus UVA used for the standard photopheresis was also included for comparison. The cell survival was measured with flow cytometry using a combined staining of CD4/CD8 antibody, Annexin-V and eFluor450.

[7] = test system: CD8+ T lymphocytes collected from a GvHD patient; assay: Ex vivo ALA-ECP killing of patient CD8+ T lymphocytes (flow cytometry); assay type: cell-based, human; settings: particularly at a low light dose, 5-min light illumination
Experimental: as §1, §2

[8] = test system: human leukocytes from GvHD or CTLC patients; assay: 5-ALA dark toxicity on human leukocytes; assay type: cell-based; settings: 10 mM 5-ALA, 17-24 hours, no light
Experimental: The general safety of 5-ALA in absence of light-mediated activation (dark toxicity) was next evaluated. Blood samples from 10 GvHD or CTLC patients were treated with 10 mM 5-ALA at 37° C. in a 5% CO2 humidified incubator overnight (17-24 hours). Buffy coat samples from patients were directly harvested from the Therakos Photopheresis System during the standard photopheresis treatment. The cells incubated with the culture medium containing no 5-ALA were also included as a control in all individuals. The leukocytes were then labelled with antibodies for flow cytometry analysis of various subpopulations. The antibodies used were: CD45 PerCP-Cyanine5.5 for leukocytes, CD4 FITC for T helper cells, CD8 FITC for T cytotoxic cells and CD19 FITC for B-cells. The cells were also labelled with Fixable Viability Dye eFluor 450 for dead cells and Annexin V for apoptotic/dead cells. The different subpopulations of leukocytes were gated out and analyzed for cell viability. The cells that were negative for both the Fixable Viability Dye eFluor 450 and Annexin V were considered as viable cells.

[9] = test system: humans; settings: oral ALA; normally resolves after 48 hours; cited from earlier work
[10] = test system: mice; settings: cited from earlier work
[11] = test system: rats; settings: cited from earlier work

For CCCCCCOC(=O)CCC(=O)CN [HAL, hexyl 5-amino-4-oxopentanoate], the “Cell proliferation, evaluated by MTS assay” value ([1]; HAL 4 h, 10 or 20 s blue light or 5 or 10 min UV-A) was “decrease in a concentration-dependent manner”, the “Dark toxicity (MTS assay)” value ([1]; HAL up to 11.00 μM) was “no indication for dark toxicities” and the “HAL concentration sufficient to decrease cell proliferation to minimum after light exposure” value ([1]; UV-A 5 or 10 min) was 5.00 µM. For the same compound, the “Number of colonies (high cell density areas formed in semisolid medium 2 weeks after treatment)” value (“Number of colonies” below) ([2]; 5.00 μM HAL/10 min UV-A) was 0, the “Number of colonies” value ([2]; 7.40 μM HAL/10 s blue light) was 4.5 ± 5.6 and the “number of experiments when colonies were formed/total number of experiments” value ([2]; 7.40 μM HAL/10 s blue light) was 4/6. For the same compound, the “Cell appearance 20 hours after treatment” value ([3]; 1.55 μM HAL, 10 min UV-A, sample to sample variations) was “mostly apoptotic + some alive, or; also recorded: mostly necrotic + some apoptotic*”, the “apoptotic bodies, twenty hours following treatment” value ([3]; 5.00 μM HAL and 10 min UV-A irradiation) was “no apoptotic bodies could be seen” and the “Cell appearance 20 hours after treatment” value ([3]; 5.00 μM HAL, 10 s UV-A) was “apoptotic + alive (similar”. For the same compound, the “Cell appearance 20 hours after treatment” value ([3]; 5.00 μM HAL, 10 s blue light) was “mostly apoptotic + some alive” and the “Cell appearance 20 hours after treatment” value ([3]; 5.00 μM HAL, 10 min UV-A) was “only necrotic, no apoptotic”.

With NCC(=O)CCC(=O)O [ALA, 5-aminolevulinic acid] the Jurkat cells killed [4] was “More than 95%”, the “ALA-induced PpIX production, proliferative versus normal resting T-cells” value [5] was “about 15 fold” and the “killing of CD4+ T-cells, ALA plus UVA versus 8-MOP plus UVA” value [6] was “much more effectively than 8-MOP plus UVA”. The “killing of CD8+ T-cells, ALA plus UVA versus 8-MOP plus UVA” value [7] was “much more effectively than 8-MOP plus UVA”, the “dark cytotoxic effect on leukocytes” value [8] was “no significant dark cytotoxic effect” and the “most common side effects” value [9] was “nausea, vomiting and a transient rise in liver enzymes”. For the same compound, the LD50 ([10]; mice, single dose of oral or intraperitoneal administration) was 2,500 mg/kg body weight, the “toxic effects after single intravenous injection” value ([10]; mouse, in vivo, iv, 500 mg/kg) was “No observable toxic effects” and the “toxic effects after single intravenous injection” value ([11]; rat, in vivo, iv, 250 mg/kg) was “No observable toxic effects”. For the same compound, the LD50 ([11]; rats, single dose of oral or intraperitoneal administration) was 2,500 mg/kg body weight.

With COc1c2occc2cc2ccc(=O)oc12 [8-MOP, 8-methoxypsoralen] the “ability to sensitise the cells to photoinactivation when UV-A lamp spectrum shifted by few nm” value ([1]; 1.00 μM 8-MOP) was “significantly increased”, the “Effect of presence of 8-MOP on cell proliferation during HAL-based PDT with blue light” value ([1]; 1.00 μM 8-MOP, blue light) was “did not affect cell proliferation” and the “Dark toxicity (MTS assay)” value ([1]; 8-MOP up to 1.00 μM) was “no indication for dark toxicities”. For the same compound, the “cell proliferation measured by MTS assay with increasing 8-MOP concentration” value ([1]; UV-A 5 and 10 min, absence of HAL) was “decreasing cell proliferation”, the “Number of colonies” value ([2]; 1.00 μM MOP/10 min UV-A) was 0.8 ± 2.0 and the “number of experiments when colonies were formed/total number of experiments” value ([2]; 1.00 μM MOP/10 min UV-A) was 1/6. The “mode of cell death, twenty hours following treatment” value ([3]; 1.00 μM 8-MOP followed by UV-A) was “almost all the cells seemed to die by apoptosis”.
